Experimental data reported in PubChem BioAssay (NCI).
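Dose response: 5 concentrations. Exposure: 48 h. Format: 96-well plates. Endpoint: linear interpolation; highest concentration if not reached. The concentration for 50% growth inhibition is given as GI50. TGI marks complete inhibition of growth.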

Legend:
Assay in all cases: growth of human tumour cells (NCI), 48 h
NCI-H522 lung = test system: NCI-H522 lung
MDA-MB-435 = test system: MDA-MB-435
SK-MEL-2 melanoma = test system: SK-MEL-2 melanoma
IGROV1 ovarian = test system: IGROV1 ovarian
KM12 colon = test system: KM12 colon
HOP-62 NSCLC = test system: HOP-62 NSCLC
RPMI-8226 leukemia = test system: RPMI-8226 leukemia
SF-539 CNS = test system: SF-539 CNS
UACC-257 melanoma = test system: UACC-257 melanoma
MDA-N = test system: MDA-N

| SMILES | TGI (NCI-H522 lung) [µM] | TGI (MDA-MB-435) [µM] | TGI (SK-MEL-2 melanoma) [µM] | TGI (IGROV1 ovarian) [µM] | TGI (KM12 colon) [µM] | TGI (HOP-62 NSCLC) [µM] | TGI (RPMI-8226 leukemia) [µM] | TGI (SF-539 CNS) [µM] | TGI (UACC-257 melanoma) [µM] | TGI (MDA-N) [µM] | GI50 (NCI-H522 lung) [µM] | GI50 (MDA-MB-435) [µM] | GI50 (SK-MEL-2 melanoma) [µM] | GI50 (IGROV1 ovarian) [µM] | GI50 (KM12 colon) [µM] | GI50 (HOP-62 NSCLC) [µM] | GI50 (RPMI-8226 leukemia) [µM] | GI50 (SF-539 CNS) [µM] | GI50 (UACC-257 melanoma) [µM] |
| --- | --- | --- | --- | --- | --- | --- | --- | --- | --- | --- | --- | --- | --- | --- | --- | --- | --- | --- | --- |
| CO/C=C(/C(=O)OC)c1ccccc1[C@@H]1CC1c1cccc(F)c1 (some centres undefined) | 35.3 | 44 | 37.4 | 62.8 | 83.9 | > 100 | 48.3 | 58.1 | 52.4 | 91.2 | – | – | – | – | – | – | – | – | – |
| Cc1nc2c(n1C)C(=O)c1nc(CBr)[nH]c(=O)c1C2=O | > 100 | – | – | > 100 | – | – | > 100 | > 100 | – | – | – | – | – | – | – | – | – | – | – |
| Cc1cccc2cc3c(ccc4ccccc43)c[n+]12 | 38.2 | > 100 | 48.3 | > 100 | 32 | > 100 | > 100 | 66.2 | 37.9 | > 100 | – | – | – | – | – | – | – | – | – |
| N#Cc1c(NC(=S)Nc2ccc(Cl)cc2)sc2c1CCCC2 | > 100 | > 100 | > 100 | > 100 | > 100 | – | 67.9 | – | > 100 | > 100 | – | – | – | – | – | – | – | – | – |
| COc1ccc2c(c1)CCN=C2Cc1cc(OC)c(OC)cc1CCCl | 60.1 | > 100 | > 100 | > 100 | > 100 | 49.6 | > 100 | 65.7 | > 100 | > 100 | – | – | – | – | – | – | – | – | – |
| CC(=O)Oc1c(C)c2c(O)c3c1C1=C(OCOC1=C(C)C3=O)/C(C)=C\C(C)(O)C(O)C(C)C(O)C1C(=O)OC(C(C)C1O)C(C)(O)/C=C/C=C(C)C(=O)N2 (centres undefined) | > 100 | > 100 | > 100 | 52.7 | > 100 | > 100 | > 100 | 46.8 | > 100 | > 100 | – | – | – | – | – | – | – | – | – |
| CN(C)c1nc(N(C)C)nc(N(C)CN(C)c2ccc(Cl)cc2)n1 | > 100 | – | > 100 | > 100 | > 100 | – | – | > 100 | > 100 | – | – | – | – | – | – | – | – | – | – |
| O=C(C[C@H](NC(=O)OCc1ccccc1)C(=O)NC1Cc2ccccc2OC1=O)OCc1ccccc1 (some centres undefined) | > 100 | > 100 | > 100 | > 100 | > 100 | > 100 | > 100 | – | – | > 100 | – | – | – | – | – | – | – | – | – |
| CCOC(=O)C[C@@H]1C2(C=C[C@@]13CO3)OCC(C)(C)CO2 | – | > 100 | > 100 | > 100 | – | > 100 | – | > 100 | > 100 | > 100 | – | – | – | – | – | – | – | – | – |
| CN(c1cc2ncc(=O)[nH]c2cc1NC(N)=NCc1ccc(Cl)cc1)C1CCCCC1 | 16.1 | 12.8 | 18.3 | 15 | 10.9 | 19.6 | 13.4 | 14.6 | 19.2 | – | 7.39 | 6.34 | 8.83 | 6.93 | 4.52 | 8.84 | 3.54 | 7.68 | 9.77 |
| CC(C)(C)OC(=O)NCC(=O)NC1c2ccsc2/C(=N/O)[C@H]1O (some centres undefined) | – | > 100 | > 100 | > 100 | – | > 100 | – | > 100 | > 100 | > 100 | – | – | – | – | – | – | – | – | – |
| CCN(CC)CCCC(C)Nc1ccnc2cc3ccccc3cc12 (centres undefined) | 29 | 24.2 | 52.4 | 50.7 | 33.8 | > 100 | > 100 | > 100 | 46.1 | – | – | – | – | – | – | – | – | – | – |
| CCN1C=C/C(=C\C=C/c2cc[n+](CC)c3ccccc23)c2ccccc21 | 23.1 | 14.2 | 21.2 | 12.4 | 12.4 | 8.18 | 12 | 9.08 | 9.76 | 19.3 | – | – | – | – | – | – | – | – | – |
| CC(C)CCC[C@@H](C)[C@H]1CC[C@H]2[C@@H]3CC[C@H]4C[C@H](N)CC[C@]4(C)[C@H]3CC[C@]12C | 99.7 | > 100 | – | 54.3 | > 100 | 70.7 | > 100 | – | 41.6 | > 100 | – | – | – | – | – | – | – | – | – |
| CCCCCCCCCCCCCCCc1ccc(OCC(O)CO)cc1 (centres undefined) | 35.4 | – | 42.7 | > 100 | 31.7 | > 100 | 53.2 | > 100 | > 100 | – | – | – | – | – | – | – | – | – | – |
| COc1ccc(C2CC(c3cccc(Nc4ccncc4)c3)=NN2c2ccc(Cl)cc2)cc1 (centres undefined) | 3.71 | 3.05 | 4.28 | 3.28 | 3.37 | – | – | 3.03 | 3.87 | – | 1.79 | 1.63 | 2.07 | 1.68 | 1.72 | – | – | 1.63 | 1.95 |
| O=c1cc(-c2ccc(O)cc2)n(C2CC2)c2ccccc12 | 9.69 | 17.5 | 8.2 | > 100 | 16.2 | 21.3 | 9.05 | 18.9 | 25.8 | 26.2 | – | – | – | – | – | – | – | – | – |
| c1ccc(C2CC(c3cccc(Nc4ccncc4)c3)=NN2c2ccccc2)cc1 (centres undefined) | 3.28 | 3.2 | 3.46 | 3.18 | 3.44 | – | – | 3.12 | 4.15 | – | 1.62 | 1.69 | 1.87 | 1.68 | 1.74 | – | – | 1.71 | 1.94 |
| O=Cc1cc([N+](=O)[O-])no1 | – | 29.9 | 57.4 | > 100 | 54.2 | > 100 | > 100 | – | 90.7 | 52.6 | – | – | – | – | – | – | – | – | – |
